Consider 3 compounds from ChEMBL document CHEMBL1121985, “3'-Hydroxy- and (+/-)-3',11-dihydroxy-delta 9-tetrahydrocannabinol: biologically active metabolites of delta 9-tetrahydrocannabinol” (1982).

In experiment [1] the test system is Mus musculus. Nature of the experiment: Tested for the ability to change in rectal temperature in mice at 6 mg/kg. It is filed as functional.
Experiment [2] relates to Canis familiaris. Nature of the experiment: Tested for Maximal behavioral effect(overt behavior) in dogs, activity is expressed as av score at a dose of 0.5 mg/kg. It counts as functional, Canis lupus familiaris.
The test system of experiment [3] is Mus musculus. Nature of the experiment: Tested for the ability to alter the spontaneous activity in mice at 10 mg/kg. It is filed as functional.
Experiment [4] has as its system Mus musculus. Nature of the experiment: Tested for the ability to alter the spontaneous activity in mice at 30 mg/kg. It counts as functional.
The test system of experiment [5] is Mus musculus. Nature of the experiment: Tested for the ability to change in rectal temperature in mice a 3 mg/kg. It counts as functional.
In experiment [6] the test system is Canis familiaris. Nature of the experiment: Tested for Maximal behavioral effect(overt behavior) in dogs, activity is expressed as av score at a dose of 0.2 mg/kg. It is filed as functional, Canis lupus familiaris.
Experiment [7] deals with Mus musculus. Nature of the experiment: Tested for the ability to alter the spontaneous activity in mice at 3 mg/kg. It counts as functional.
In experiment [8] the test system is Mus musculus. Nature of the experiment: Tested for the ability to change in rectal temperature in mice at 30 mg/kg. It is filed as functional.
The test system of experiment [9] is Mus musculus. Nature of the experiment: Tested for the ability to change in rectal temperature in mice at 10 mg/kg. It counts as functional.
For experiment [10], the system named is Mus musculus. Nature of the experiment: Tested for the ability to alter the spontaneous activity in mice at 6 mg/kg. It counts as functional.
Experiment [11] deals with Mus musculus. Nature of the experiment: Tested for the ability to change in rectal temperature in mice at 3 mg/kg. It is filed as functional.
Experiment [12] concerns Canis familiaris. Nature of the experiment: Cardiovascular effect for percentage change in heart rate in anesthetized dogs after 1 mg/kg iv dose. It is filed as functional, Canis lupus familiaris.
For experiment [13], the system named is Mus musculus. Nature of the experiment: Tested for the ability to change in rectal temperature in mice at 0.1 mg/kg. It is filed as functional.
The subject of experiment [14] is Mus musculus. Nature of the experiment: Tested for the ability to alter the spontaneous activity in mice at 1 mg/kg. It is filed as functional.
The subject of experiment [15] is Canis familiaris. Nature of the experiment: Tested for Maximal behavioral effect(overt behavior) in dogs, activity is expressed as av score at a dose of 0.1 mg/kg. It is filed as functional, Canis lupus familiaris.
Experiment [16] deals with Mus musculus. Nature of the experiment: Tested for the ability to alter the spontaneous activity in mice at 0.1 mg/kg. It is filed as functional.
Experiment [17] relates to Mus musculus. Nature of the experiment: Tested for the ability to change in rectal temperature in mice at 1 mg/kg. It is filed as functional.
The subject of experiment [18] is Canis familiaris. Nature of the experiment: Cardiovascular effect for percentage change in blood pressure in anesthetized dogs after 1 mg/kg iv dose. It is filed as functional, Canis lupus familiaris.
For experiment [19], the system named is Mus musculus. Nature of the experiment: Tested for the ability to alter the spontaneous activity in mice at 0.3 mg/kg. It counts as functional.
Experiment [20] has as its system Canis familiaris. Nature of the experiment: Tested for Maximal behavioral effect(overt behavior) in dogs, activity is expressed as av score at a dose of 0.05 mg/kg. It counts as functional, Canis lupus familiaris.
Experiment [21] has as its system Mus musculus. Nature of the experiment: Tested for the ability to change in rectal temperature in mice at 0.3 mg/kg. It is filed as functional.
The subject of experiment [22] is Mus musculus. Nature of the experiment: Tested for the ability to change in rectal temperature in mice at 5.0 mg/kg. It is filed as functional.
Experiment [23] concerns Mus musculus. Nature of the experiment: Tested for the ability to alter the spontaneous activity in mice at 2.5 mg/kg. It is filed as functional.
Experiment [24] has as its system Mus musculus. Nature of the experiment: Tested for the ability to alter the spontaneous activity in mice at 5.0 mg/kg. It counts as functional.
Experiment [25] concerns Mus musculus. Nature of the experiment: Tested for the ability to alter the spontaneous activity in mice at 10.0 mg/kg. It is filed as functional.
Experiment [26] has as its system Mus musculus. Nature of the experiment: Tested for the ability to change in rectal temperature in mice at 2.5 mg/kg. It counts as functional.
In experiment [27] the test system is Mus musculus. Nature of the experiment: Tested for the ability to change in rectal temperature in mice at 10.0 mg/kg. It counts as functional.
Experiment [28] concerns Mus musculus. Nature of the experiment: Tested for the ability to alter the spontaneous activity in mice at 7.5 mg/kg. It is filed as functional.
Experiment [29] has as its system Canis familiaris. Nature of the experiment: Tested for Maximal behavioral effect(overt behavior) in dogs, activity is expressed as av score at a dose of 0.4 mg/kg. It counts as functional, Canis lupus familiaris.
The subject of experiment [30] is Mus musculus. Nature of the experiment: Tested for the ability to change in rectal temperature in mice at 7.5 mg/kg. It counts as functional.

On to `CCC(O)CCc1cc(O)c2c(c1)OC(C)(C)[C@@H]1CCC(CO)=CC21` (stereo partly drawn), for which the Change in temparature in experiment [1] is -0.2 °C; in experiment [5], -0.4 °C; in [8], -4.3 °C; in experiment [9], -3 °C. For the same compound, the figures for the Average score in [2] and in experiment [6] were 3 and 1, respectively. Moreover, the Activity in [3] was found to be 33; in experiment [4], 26; in experiment [7], 81; in experiment [10], 59.

For the compound `CCC(O)CCc1cc(O)c2c(c1)OC(C)(C)[C@@H]1CCC(C)=CC21` (stereo partly drawn), the Change in temparature in experiment [11] was -4.1 °C; in [13], -0.4 °C; in [17], -2.8 °C; in experiment [9], -7.6 °C; in experiment [21] it was -1.3 °C. In addition, the Change in [12] was -12%. For the same compound, the Activity in experiment [14] is given as 27; in experiment [16] it was 108; in experiment [3], 7; in [19] it was 86; in [7], 13. For the same compound, the Average score in [15] was 2; in experiment [18] it was -45%; in experiment [6], 4.5; in experiment [20], 1.

Turning to `CCCCCc1cc(O)c2c(c1)OC(C)(C)[C@@H]1CCC(C)=C[C@@H]21` [DRONABINOL], the Change in temparature was -3.6 °C in [22], -2.6 °C in [26], -4.2 °C in experiment [27] and -3.8 °C in experiment [30]. The Change in [12] was -39%; in experiment [18], -46%. The Activity in [23] is 59; in experiment [24], 20; in experiment [25], 6; in [28], 17. The Average score was 0 in experiment [15], 3 in experiment [6] and 4 in experiment [29].
